Measured values reported in patent US20240208968A1, “ALPHA V BETA 6 AND ALPHA V BETA 1 INTEGRIN INHIBITORS AND USES THEREOF” (DiCE Molecules SV, Inc., priority 2021, published 2024).
Structures can show the parent of a compound that is named as a salt. Values belong to the compound of their own block, whether it stands above or below them.

What was measured:
αvβ6 = αvβ6 (Homo sapiens, UniProt P06756+P18564); assay: Solid Phase Integrin αvβ6 Assay; type: binding
Outline: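 Plates coated with 1 μg/mL recombinant TGFb1-LAP; compounds and αvβ6 (0.2 μg/mL diluted stock) incubated 1 h at room temperature in 2% BSA/TBST with 1 mM MnCl2. Bound integrin detected with streptavidin-HRP and TMB; IC50 from four-parameter logistic fits.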

αvβ1 = αvβ1 (Homo sapiens, UniProt P05556+P06756); assay: Solid Phase Integrin αvβ1 Assay; type: binding
Outline: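 Wells coated with 1 µg/mL recombinant TGFb1-LAP and blocked with 2% BSA/TBST, 1 mM MnCl2; αvβ1 (added at 0.2 µg/mL) and compound incubated 90 min at room temperature. Bound integrin detected by streptavidin-HRP (20 min) and TMB after Mn-containing washes; IC50 by four-parameter logistic fit.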

Sequence of αvβ1 (P06756 31-992 limits assumed): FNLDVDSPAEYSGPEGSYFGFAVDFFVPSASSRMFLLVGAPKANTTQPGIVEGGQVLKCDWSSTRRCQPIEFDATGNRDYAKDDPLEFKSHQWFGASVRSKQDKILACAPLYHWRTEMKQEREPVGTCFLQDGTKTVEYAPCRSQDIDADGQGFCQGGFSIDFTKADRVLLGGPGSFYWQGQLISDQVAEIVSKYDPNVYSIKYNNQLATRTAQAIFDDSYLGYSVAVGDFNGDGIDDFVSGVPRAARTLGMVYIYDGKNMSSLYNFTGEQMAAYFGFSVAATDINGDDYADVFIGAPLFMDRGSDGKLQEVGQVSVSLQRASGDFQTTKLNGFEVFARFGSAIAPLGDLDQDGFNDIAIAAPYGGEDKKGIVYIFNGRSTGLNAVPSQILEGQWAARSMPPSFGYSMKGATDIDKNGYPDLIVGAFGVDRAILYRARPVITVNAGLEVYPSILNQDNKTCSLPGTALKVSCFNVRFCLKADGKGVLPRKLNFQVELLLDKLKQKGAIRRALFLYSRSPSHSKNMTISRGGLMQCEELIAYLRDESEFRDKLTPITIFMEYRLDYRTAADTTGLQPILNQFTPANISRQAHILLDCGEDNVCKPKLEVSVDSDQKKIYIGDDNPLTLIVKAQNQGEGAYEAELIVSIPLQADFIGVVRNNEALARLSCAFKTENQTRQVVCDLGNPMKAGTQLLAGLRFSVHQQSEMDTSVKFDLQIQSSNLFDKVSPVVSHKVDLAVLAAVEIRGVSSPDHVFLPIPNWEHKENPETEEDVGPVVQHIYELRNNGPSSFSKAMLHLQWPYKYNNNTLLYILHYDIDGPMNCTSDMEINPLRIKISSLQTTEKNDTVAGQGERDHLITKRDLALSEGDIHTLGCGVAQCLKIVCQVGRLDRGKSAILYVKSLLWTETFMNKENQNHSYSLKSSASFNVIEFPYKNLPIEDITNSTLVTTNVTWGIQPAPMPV
Sequence of αvβ1 (P05556 21-728 limits assumed): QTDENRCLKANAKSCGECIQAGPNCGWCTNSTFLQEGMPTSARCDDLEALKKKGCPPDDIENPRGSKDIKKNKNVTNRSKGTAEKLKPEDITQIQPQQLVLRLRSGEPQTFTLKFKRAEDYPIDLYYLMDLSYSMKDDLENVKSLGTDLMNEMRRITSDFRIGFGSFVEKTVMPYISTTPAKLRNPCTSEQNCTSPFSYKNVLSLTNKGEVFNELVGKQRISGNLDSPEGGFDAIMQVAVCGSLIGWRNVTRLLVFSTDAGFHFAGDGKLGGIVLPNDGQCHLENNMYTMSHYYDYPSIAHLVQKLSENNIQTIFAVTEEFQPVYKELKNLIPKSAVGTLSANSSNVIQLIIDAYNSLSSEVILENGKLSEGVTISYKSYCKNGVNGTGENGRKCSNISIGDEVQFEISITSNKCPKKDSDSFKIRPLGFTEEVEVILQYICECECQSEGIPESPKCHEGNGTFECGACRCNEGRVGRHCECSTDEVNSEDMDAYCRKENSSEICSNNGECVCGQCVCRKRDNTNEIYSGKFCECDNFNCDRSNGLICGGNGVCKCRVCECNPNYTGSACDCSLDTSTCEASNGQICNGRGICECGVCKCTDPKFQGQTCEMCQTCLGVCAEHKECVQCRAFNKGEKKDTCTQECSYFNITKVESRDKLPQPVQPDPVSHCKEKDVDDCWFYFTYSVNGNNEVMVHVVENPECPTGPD
Sequence of αvβ6 (P06756 31-992 limits assumed): as the sequence (P06756 31-992 limits assumed) above
Sequence of αvβ6 (P18564 22-707 limits assumed): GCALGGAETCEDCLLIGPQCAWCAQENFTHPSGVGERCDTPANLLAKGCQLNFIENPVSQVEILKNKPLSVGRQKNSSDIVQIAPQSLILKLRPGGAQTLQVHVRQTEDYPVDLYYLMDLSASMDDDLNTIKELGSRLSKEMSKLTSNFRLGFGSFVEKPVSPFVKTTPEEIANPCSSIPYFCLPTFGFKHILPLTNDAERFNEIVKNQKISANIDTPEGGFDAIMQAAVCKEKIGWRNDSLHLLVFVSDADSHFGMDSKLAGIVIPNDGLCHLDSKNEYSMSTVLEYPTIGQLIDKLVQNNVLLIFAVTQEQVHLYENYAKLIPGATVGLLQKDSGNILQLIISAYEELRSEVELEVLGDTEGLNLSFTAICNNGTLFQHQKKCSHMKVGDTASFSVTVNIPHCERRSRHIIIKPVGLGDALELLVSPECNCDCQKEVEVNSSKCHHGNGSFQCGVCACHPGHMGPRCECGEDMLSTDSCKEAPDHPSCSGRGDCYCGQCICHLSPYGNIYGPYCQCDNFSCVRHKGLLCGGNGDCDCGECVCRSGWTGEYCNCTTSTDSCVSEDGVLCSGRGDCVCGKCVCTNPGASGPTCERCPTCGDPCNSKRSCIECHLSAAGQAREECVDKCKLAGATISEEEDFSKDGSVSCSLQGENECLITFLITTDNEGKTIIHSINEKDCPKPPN

Structure (SMILES): C[C@@H]1CN(c2cccc([C@H](CC(=O)O)NC(=O)[C@@H]3CCCN(CCCc4ccc5c(n4)NCCC5)C3)c2)C[C@H](C)O1 [Compound 617]
IC50 (αvβ6): < 100 nM
IC50 (αvβ1): < 100 nM

Structure (SMILES): O=C(N[C@@H](CNC(=O)[C@@H]1CCCN(CCCc2ccc3c(n2)NCCC3)C1)C(=O)O)C1CCCCC1 [Compound 262, (S)-2-(cyclohexanecarboxamido)-3-((R)-1-(3-(5,6,7,8-tetrahydro-1,8-naphthyridin-2-yl)propyl)piperidine-3-carboxamido)propanoic acid hydrochloride]
IC50 (αvβ6): < 100 nM
IC50 (αvβ1): < 100 nM

Structure (SMILES): C[C@@H]1C[C@H](C(=O)N[C@@H](CC(=O)O)c2ccccc2)CN(CCCc2ccc3c(n2)NCCC3)C1 [Compound 379]
IC50 (αvβ6): < 100 nM
IC50 (αvβ1): < 100 nM

Structure (SMILES): O=C(O)[C@@](O)(CO[C@@H]1CCCN(Cc2ccc3c(n2)NCCC3)C1)c1ccccc1 [Compound 477]
IC50 (αvβ6): > 1000 nM
IC50 (αvβ1): > 1000 nM

Structure (SMILES): O=C(O)C(CNC(=O)[C@@H]1CCCN(CCCc2ccc3c(n2)NCCC3)C1)c1cc(-c2ccccc2)ccn1 (stereo partly drawn) [Compound 628]
IC50 (αvβ6): < 100 nM
IC50 (αvβ1): < 100 nM

Structure (SMILES): O=C(O)CC(CO[C@@H]1CCCN(Cc2ccc3c(n2)NCCC3)C1)c1ccccc1 (stereo partly drawn) [Compound 336]
IC50 (αvβ6): 100 to 1000 nM
IC50 (αvβ1): > 1000 nM

Structure (SMILES): O=C(O)C[C@H](NC(=O)[C@@H]1CCCN(CCCc2ccc3c(n2)NCCC3)C1)c1cccc(C2CC2)c1 [Compound 224, (S)-3-(3-Cyclopropylphenyl)-3-((R)-1-(3-(5,6,7,8-Tetrahydro-1,8-Naphthyridin-2-YI)Propyl)Piperidine-3-Carboxamido)Propanoic Acid hydrochloride]
IC50 (αvβ6): < 100 nM
IC50 (αvβ1): < 100 nM

Structure (SMILES): O=C(O)C[C@@H](CC[C@@H]1CCCN(CCCc2ccc3c(n2)NCCC3)C1)c1ccccc1 [Compound 298-A, 3-phenyl-5-((R)-1-(3-(5,6,7,8-tetrahydro-1,8-naphthyridin-2-yl)propyl)piperidin-3-yl)pentanoi c acid]
IC50 (αvβ6): 100 to 1000 nM
IC50 (αvβ1): < 100 nM

Structure (SMILES): O=C(NC[C@H](NS(=O)(=O)c1ccc2c(c1)CCC2)C(=O)O)[C@@H]1CCCN(CCCc2ccc3c(n2)NCCC3)C1 [Compound 275, (2S)-2-(indan-5-ylsulfonylamino)-3-[[(3R)-1-[3-(5,6,7,8-tetrahydro-1,8-naphthyridin-2-yl)propyl]piperidine-3-carbonyl]amino]propanoic acid]
IC50 (αvβ6): < 100 nM
IC50 (αvβ1): 100 to 1000 nM

Structure (SMILES): O=C(O)CC(CC(=O)N[C@H]1CCN(CCCCc2ccc3c(n2)NCCC3)C1)c1ccccc1 (stereo partly drawn) [Compound 525]
IC50 (αvβ6): 100 to 1000 nM
IC50 (αvβ1): < 100 nM

Structure (SMILES): O=C(O)CC(NC(=O)[C@@H]1CCCN(CCCc2ccc3c(n2)NCCC3)C1)c1ccc2c(c1)OCC2 (stereo partly drawn) [Compound 217, 3-(2,3-dihydrobenzofuran-6-yl)-3-((R)-1-(3-(5,6,7,8-tetrahydro-1,8-naphthyridin-2-yl)propyl)piperidine-3-carboxamido)propanoic acid hydrochloride]
IC50 (αvβ6): < 100 nM
IC50 (αvβ1): < 100 nM

Structure (SMILES): O=C(CC[C@H](NC(=O)[C@@H]1CCCN1S(=O)(=O)c1ccccc1)C(=O)O)N[C@H]1CCN(C(=O)CCCc2ccc3c(n2)NCCC3)C1 [Compound 439]
IC50 (αvβ6): 100 to 1000 nM
IC50 (αvβ1): < 100 nM

Structure (SMILES): O=C(NC[C@H](C(=O)O)c1cccc(Br)c1)[C@@H]1CCCN(CCCc2ccc3c(n2)NCCC3)C1 [Compound 303]
IC50 (αvβ6): < 100 nM
IC50 (αvβ1): < 100 nM

Structure (SMILES): O=C(NC[C@H](C(=O)O)c1cccc2c1cnn2CC1CC1)[C@@H]1CCCN(CCCc2ccc3c(n2)NCCC3)C1 [Compound 315]
IC50 (αvβ6): < 100 nM
IC50 (αvβ1): < 100 nM

Structure (SMILES): O=C(O)[C@H](c1ccccc1)[C@H](O)CO[C@@H]1CCCN(CCCc2ccc3c(n2)NCCC3)C1 [Compound 611]
IC50 (αvβ6): > 1000 nM
IC50 (αvβ1): > 1000 nM

Structure (SMILES): CN1CCc2cc(S(=O)(=O)N[C@@H](CNC(=O)[C@@H]3CCCN(CCCc4ccc5c(n4)NCCC5)C3)C(=O)O)ccc21 [Compound 542]
IC50 (αvβ6): < 100 nM
IC50 (αvβ1): 100 to 1000 nM

Structure (SMILES): O=C(O)C[C@H](NC(=O)[C@@H]1CCCN(CCCc2ccc3c(n2)NCCC3)C1)c1cccc2c1CCO2 [Compound 615]
IC50 (αvβ6): < 100 nM
IC50 (αvβ1): < 100 nM

Structure (SMILES): O=C(O)C[C@@H](CO[C@@H]1CCCN(CCCc2ccc3c(n2)NCCC3)C1)c1cccc(N2C[C@@H]3CC[C@H]2CO3)c1 [Compound 464]
IC50 (αvβ6): 100 to 1000 nM
IC50 (αvβ1): 100 to 1000 nM

Structure (SMILES): O=C(N[C@@H](CNC(=O)[C@@H]1CCCN(CCCc2ccc3c(n2)NCCC3)C1)C(=O)O)c1cc(Cl)cc(Cl)c1 [Compound 363]
IC50 (αvβ6): < 100 nM
IC50 (αvβ1): < 100 nM

Structure (SMILES): O=C(CC[C@@H](NC(=O)C12CCC(CC1)CC2)C(=O)O)N[C@H]1CCN(CCCCc2ccc3c(n2)NCCC3)C1 [Compound 431]
IC50 (αvβ6): > 1000 nM
IC50 (αvβ1): > 1000 nM

Structure (SMILES): Cc1csc2ncnc(N[C@@H](CNC(=O)[C@@H]3CCCN(CCCc4ccc5c(n4)NCCC5)C3)C(=O)O)c12 [Compound 280, (S)-2-((5-methylthieno[2,3-d]pyrimidin-4-yl)amino)-3-((R)-1-(3-(5,6,7,8-tetrahydro-1,8-naphthyridin-2-yl)propyl)piperidine-3-carboxamido)propanoic acid]
IC50 (αvβ6): < 100 nM
IC50 (αvβ1): < 100 nM

Structure (SMILES): C[C@@H]1C[C@@H](C(=O)NC[C@@H](C(=O)O)c2cccc(-c3ccccc3)c2)CN(CCCc2ccc3c(n2)NCCC3)C1 [Compound 640]
IC50 (αvβ6): 100 to 1000 nM
IC50 (αvβ1): 100 to 1000 nM

Structure (SMILES): C[C@@H]1CN(c2cccc([C@H](CNC(=O)[C@@H]3CCCN(CCCc4ccc5c(n4)NCCC5)C3)C(=O)O)c2)C[C@@H](C)O1 [Compound 605]
IC50 (αvβ6): < 100 nM
IC50 (αvβ1): < 100 nM

Structure (SMILES): O=C(O)C[C@H](O[C@@H]1CCCN(CCCc2ccc3c(n2)NCCC3)C1)c1ccccc1 [Compound 349]
IC50 (αvβ6): > 1000 nM
IC50 (αvβ1): > 1000 nM

Structure (SMILES): O=C(O)[C@H](CCO[C@@H]1CCCN(CCCc2ccc3c(n2)NCCC3)C1)c1cccc(-c2ccccc2)c1 [Compound 329]
IC50 (αvβ6): > 1000 nM
IC50 (αvβ1): > 1000 nM

Structure (SMILES): O=C(NC[C@H](C(=O)O)c1cc(F)cc(-c2ccccc2)c1)[C@@H]1CCCN(CCCc2ccc3c(n2)NCCC3)C1 [Compound 306]
IC50 (αvβ6): 100 to 1000 nM
IC50 (αvβ1): 100 to 1000 nM

The remaining lines, values ahead:

IC50 (αvβ6): < 100 nM
IC50 (αvβ1): < 100 nM
Structure (SMILES): CC1(C)CN(c2cc([C@H](CO[C@@H]3CCCN(CCCc4ccc5c(n4)NCCC5)C3)CC(=O)O)ccc2F)CCO1 [Compound 580]

IC50 (αvβ6): < 100 nM
IC50 (αvβ1): < 100 nM
Structure (SMILES): O=C(NC[C@@H](C(=O)O)c1cccc2c1CCC2)[C@@H]1CCCN(CCCc2ccc3c(n2)NCCC3)C1 [Compound 561]

IC50 (αvβ6): > 1000 nM
IC50 (αvβ1): > 1000 nM
Structure (SMILES): O=C(O)[C@@H](c1ccccc1)[C@H](O)CO[C@@H]1CCCN(CCCc2ccc3c(n2)NCCC3)C1 [Compound 609]

IC50 (αvβ6): < 100 nM
IC50 (αvβ1): < 100 nM
Structure (SMILES): CO[C@H]1CCN(C(=O)[C@@H]2CCCC[C@H]2C(=O)N[C@@H](CNC(=O)[C@@H]2CCCN(CCCc3ccc4c(n3)NCCC4)C2)C(=O)O)C1 [Compound 268, (S)-2-((1R,2R)-2-((S)-3-methoxypyrrolidine-1-carbonyl)cyclohexane-1-carboxamido)-3-((R)-1-(3-(5,6,7,8-tetrahydro-1,8-naphthyridin-2-yl)propyl)piperidine-3-carboxamido)propanoic acid]

IC50 (αvβ6): < 100 nM
IC50 (αvβ1): < 100 nM
Structure (SMILES): CC1(C(=O)N[C@@H](CNC(=O)[C@@H]2CCCN(CCCc3ccc4c(n3)NCCC4)C2)C(=O)O)CCCCC1 [Compound 263, (S)-2-(1-methylcyclohexane-1-carboxamido)-3-((R)-1-(3-(5,6,7,8-tetrahydro-1,8-naphthyridin-2-yl)propyl)piperidine-3-carboxamido)propanoic acid hydrochloride]

IC50 (αvβ6): < 100 nM
IC50 (αvβ1): < 100 nM
Structure (SMILES): O=C(NC[C@H](Nc1ncnc2ccsc12)C(=O)O)[C@@H]1CCCN(CCCc2ccc3c(n2)NCCC3)C1 [Compound 276, (2S)-3-[[(3R)-1-[3-(5,6,7,8-tetrahydro-1,8-naphthyridin-2-yl)propyl]piperidine-3-carbonyl]amino]-2-(thieno[3,2-d]pyrimidin-4-ylamino)propanoic acid]

IC50 (αvβ6): < 100 nM
IC50 (αvβ1): < 100 nM
Structure (SMILES): O=C(NC[C@@H](C(=O)O)c1ccccc1)[C@@H]1CCCN(CCCc2ccc3c(n2)NCCC3)C1 [Compound 246, (S)-2-phenyl-3-((R)-1-(3-(5,6,7,8-tetrahydro-1,8-naphthyridin-2-yl)propyl)piperidine-3-carboxamido)propanoic acid]

IC50 (αvβ6): > 1000 nM
IC50 (αvβ1): > 1000 nM
Structure (SMILES): O=C(O)C[C@@H](CO[C@@H]1CCCN(CCCc2ccc3c(n2)NCCC3)C1)c1ccccc1-c1ccccc1 [Compound 461]

IC50 (αvβ6): < 100 nM
IC50 (αvβ1): < 100 nM
Structure (SMILES): O=C(O)[C@@H](CCO[C@@H]1CCCN(CCCc2ccc3c(n2)NCCC3)C1)c1cccc2nn(CC3CC3)cc12 [Compound 487]

IC50 (αvβ6): < 100 nM
IC50 (αvβ1): < 100 nM
Structure (SMILES): O=C(O)C[C@@H](NC(=O)[C@@H]1CCCN(CCCc2ccc3c(n2)NCCC3)C1)c1ccc2c(c1)CCC2 [Compound 201-B, 3-(2,3-dihydro-1H-inden-5-yl)-3-((R)-1-(3-(5,6,7,8-tetrahydro-1,8-naphthyridin-2-yl)propyl)piperidine-3-carboxamido)propanoic acid hydrochloride]

IC50 (αvβ6): > 1000 nM
IC50 (αvβ1): > 1000 nM
Structure (SMILES): C[C@@H]1C[C@@H](C(=O)NC[C@H](C(=O)O)c2cccc(-c3ccccc3)c2)CN(CCCc2ccc3c(n2)NCCC3)C1 [Compound 630]

IC50 (αvβ6): < 100 nM
IC50 (αvβ1): < 100 nM
Structure (SMILES): O=C(NC[C@H](Nc1ncnc2cc(C(F)(F)F)ccc12)C(=O)O)[C@@H]1CCCN(CCCc2ccc3c(n2)NCCC3)C1 [Compound 282, (S)-3-((R)-1-(3-(5,6,7,8-tetrahydro-1,8-naphthyridin-2-yl)propyl)piperidine-3-carboxamido)-2-((7-(trifluoromethyl)quinazolin-4-yl)amino)propanoic acid hydrochloride]

IC50 (αvβ6): < 100 nM
IC50 (αvβ1): 100 to 1000 nM
Structure (SMILES): O=C(O)[C@@H](CCO[C@@H]1CCCN(CCCc2ccc3c(n2)NCCC3)C1)Nc1ncnc2cc(C(F)(F)F)ccc12 [Compound 497]
